Test results published in US9655824B2, “Use of diphenylmethane derivatives as tyrosinase inhibitors” (Symrise AG, priority 2003, dated 2017).

Experiments:
Assay type in all cases: cell-based
[1] = Cytotoxicity determination (MTT), 3T3 cells; details: mouse, 3T3 fibrosarcoma cells; 3T3 cells, 48 h incubation, MTT
Procedure: (§1) 3T3 fibrosarcoma cells or B16V mouse melanoma cells are distributed in a 96-well microtitre plate in a concentration of 1×10^4 cells/well (3T3) or 2×10^4 cells/well (B16V). After culturing for 24 h at 37° C. and 5% CO2 in DMEM medium (3T3 cells) or RPMI medium (B16V cells), enriched with 10% foetal calf serum, the medium is removed by suction. Various concentrations of the test substances, dissolved in fresh medium enriched with 5% foetal calf serum, are added and the plates are incubated for a further 48 h. A parallel incubation is carried out using SDS as standard in concentrations of 0.01 mM, 0.1 mM, 1 mM and 10 mM. After the incubation, the medium is removed by suction and the cells are incubated for with (sic) 2 h with MTT (3-[4,5-dimethylthiazol-2-yl]2,5-diphenyl tetrazolium bromide). After extraction of the dye with SDS acidified with acetic acid in DMSO (10 min), the absorption (A) at 570 nm is measured.
(§2) Average value and standard deviation of the controls, the blanks and the samples are calculated. The average value of the blanks is substracted from the average values of the controls and samples. The viability of the cells is indicated as a percentage with respect to the controls (100%): Viability (%)=(Atest compound/Acontrol)×100]

[2] = test system: B16V mouse melanoma cells; test: Lightening effect: inhibition of pigmentation in α-MSH-stimulated B16V cells; details: for IC50: Mus musculus, B16V cells, 10 nM α-MSH, 96 h, absorption 400 nm; for Activity greater than that of kojic acid by a factor: ratio of IC50 values versus kojic acid
Procedure: Test method: B16V mouse melanoma cells are distributed in a 96-well micro titre plate in a concentration of 5×10^3 cells/well. After culturing for 24 h at 37° C. and 5% CO2 in RPMI medium, enriched with 10% foetal calf serum, various concentrations of the test substances and 10 nM α-MSH (α-melanocyte stimulating hormone) are added and the plates are incubated for a further 96 h. The maximum concentration of the test substances used corresponds to 0.1 times the value of the particular IC20 value from the cytotoxicity assay. A parallel incubation was carried out with kojic acid as standard in concentrations of 0.01 mM, 0.1 mM and 1 mM. After the incubation, SDS and NaOH (final concentrations: 1 mM and 1M, respectively) are added to the culture medium and the adsorption (A) is measured at 400 nm after 3 h. The inhibition of the pigmentation in the presence of the test compounds or kojic acid was calculated in accordance with the following equation: Inhibition of pigmentation (%)=100−[(Atest compound/Acontrol)×100] The IC50 is calculated for each test compound from the inhibition of the pigmentation (%) in a series of dilutions of test compounds. The IC50 is the concentration of a test compound at which the pigmentation is 50% inhibited.

[3] = Cytotoxicity determination (MTT), B16V cells; details: mouse, B16V melanoma cells, 48 h incubation
Procedure: as §1, §2

3T3 fibrosarcoma cells = test: Cytotoxicity determination (MTT), 3T3 cells; details: approximately comparable to 4-hexylresorcinol
Procedure: as §1, §2

| IC50 [2] [µM] | SMILES | IC20 at 48 h [1] [µM] | IC50 at 48 h [1] [µM] | Activity greater than that of kojic acid by a factor [2] | IC20 at 48 h [3] [µM] | IC50 at 48 h [3] [µM] | Cytotoxicity (in words) (3T3 fibrosarcoma cells) | Effectiveness compared with 4-hexylresorcinol ([2]; versus 4-hexylresorcinol) |
| --- | --- | --- | --- | --- | --- | --- | --- | --- |
| 5.2 | CCCCCCc1ccc(O)cc1O [4-hexylresorcinol] | 70 | 140 | approximately 87 |  |  |  |  |
|  | O=c1cc(CO)occ1O [Kojic acid, 5-hydroxy-2-hydroxymethyl-4-pyranone] | > 100000 | > 100000 |  | > 100000 | > 100000 |  |  |
| 2.1 | CC(c1ccccc1)c1ccc(O)cc1O (stereo not shown) [Styrylresorcinol (4), 4-(1-phenylethyl)-1,3-dihydroxybenzene] | 70 | 150 | approximately 215 | 20 | 140 | relatively low cytotoxicity | more than twice as effective |
